Test results reported in patent US11046720B2, “Dimethylphosphine oxide compound” (GUIZHOU INOCHINI TECHNOLOGY CO., LTD, priority 2018, dated 2021).

System: not listed separately
Test: Pharmacokinetic evaluation in C57BL/6 mice, brain tissues and plasma
Assay type: in vivo
Conditions: male, C57BL/6, mouse, brain/plasma, oral, 5 mg/kg, read-out: drug concentration ratio between brain tissues and plasma (B/P)
Description: Experimental purpose: to study pharmacokinetics of the compounds in vivo in C57BL/6 mice—drug concentration ratio between brain tissues and plasma
Experimental materials: C57BL/6 mice (male, 8 weeks old, weight: 25 g-30 g)
Assay Pharmacokinetic Features of Glires after they are Orally Administered the Compounds According to Standard Schemes.
In the experiment, the candidate compounds are prepared into 1 mg/mL mixed suspension, and mice are orally administered once. The menstruum for oral administration is 10% dimethyl sulfoxide (DMSO)/10% polysorbate/20% PEG-400 aqueous solution. This project uses male C57BL/6 mice, which are orally administered drugs at a dose of 5 mg/kg. Collect the whole brain 0.5, 1, 2 and 4 hours after the administration. Homogenize tissue samples with 15 mM [[…] (pH=7.4) buffer and methanol (volume ratio: 2:1)] at a ratio of 1:5 (w:v). Equally divide the homogenate into 2 samples: one for assay and the other for standby use. Besides, collect plasma 0.5, 1, 2 and 4 hours after administration. Centrifugate with 3,000 g relative centrifugal force within half an hour after collection at about 4° C. for 15 minutes to separate supernatant and obtain plasma samples. Store the plasma samples in polypropylene tubes; rapidly freeze them on dry ice and keep them at −80° C. till LC/MS/MS assay. Add internal standard precipitated protein of acetonitrile solution and fully mix them to extract supernatant samples via centrifugation. Quantitatively analyze plasma concentration by LC-MS/MS assay and calculate pharmacokinetic parameters such as maximal concentration (Cmax), half-life (T1/2), maximal time (Tmax), drug concentration in different tissues after administration (AUC0-last), and drug concentration ratio between brain tissues and plasma (B/P).

Row | Structure (SMILES) | Kp
1 | COc1nc(N2CC3(CC(OC)C3)C2)ccc1Nc1ncc(Cl)c(Nc2ccccc2P(C)(C)=O)n1 [Embodiment 11] | 0.41
2 | COc1nc(N2CC3(COC3)C2)ccc1Nc1ncc(Cl)c(Nc2ccccc2P(C)(C)=O)n1 [Embodiment 12] | 0.14
3 | COc1nc(N2CC3(C2)CC(F)(F)C3)ccc1Nc1ncc(Cl)c(Nc2ccccc2P(C)(C)=O)n1 [Embodiment 13] | 0.52

Same assay, conditions: male, C57BL/6, mouse, oral, 5 mg/kg, brain tissues, read-out: AUC0-last Brain Tissues

Row | Structure (SMILES) | AUC(0-t) [µM·h]
4 | COc1nc(N2CC3(CC(OC)C3)C2)ccc1Nc1ncc(Cl)c(Nc2ccccc2P(C)(C)=O)n1 [Embodiment 11] | 0.597
5 | COc1nc(N2CC3(COC3)C2)ccc1Nc1ncc(Cl)c(Nc2ccccc2P(C)(C)=O)n1 [Embodiment 12] | 0.476
6 | COc1nc(N2CC3(C2)CC(F)(F)C3)ccc1Nc1ncc(Cl)c(Nc2ccccc2P(C)(C)=O)n1 [Embodiment 13] | 1.16

Same assay, conditions: male, C57BL/6, mouse, oral, 5 mg/kg, brain tissues, read-out: T1/2 Brain Tissues (converted)

Row | Structure (SMILES) | half-life [min]
7 | COc1nc(N2CC3(CC(OC)C3)C2)ccc1Nc1ncc(Cl)c(Nc2ccccc2P(C)(C)=O)n1 [Embodiment 11] | 22.2
8 | COc1nc(N2CC3(COC3)C2)ccc1Nc1ncc(Cl)c(Nc2ccccc2P(C)(C)=O)n1 [Embodiment 12] | 23.4
9 | COc1nc(N2CC3(C2)CC(F)(F)C3)ccc1Nc1ncc(Cl)c(Nc2ccccc2P(C)(C)=O)n1 [Embodiment 13] | 43.2

Same assay, conditions: male, C57BL/6, mouse, oral, 5 mg/kg, brain tissues, read-out: Tmax Brain Tissues

Row | Structure (SMILES) | Tmax [min]
10 | COc1nc(N2CC3(CC(OC)C3)C2)ccc1Nc1ncc(Cl)c(Nc2ccccc2P(C)(C)=O)n1 [Embodiment 11] | 30
11 | COc1nc(N2CC3(COC3)C2)ccc1Nc1ncc(Cl)c(Nc2ccccc2P(C)(C)=O)n1 [Embodiment 12] | 30
12 | COc1nc(N2CC3(C2)CC(F)(F)C3)ccc1Nc1ncc(Cl)c(Nc2ccccc2P(C)(C)=O)n1 [Embodiment 13] | 30

Same assay, conditions: male, C57BL/6, mouse, oral, 5 mg/kg, plasma

Row | Structure (SMILES) | Cmax [nM]
13 | COc1nc(N2CC3(CC(OC)C3)C2)ccc1Nc1ncc(Cl)c(Nc2ccccc2P(C)(C)=O)n1 [Embodiment 11] | 1560
14 | COc1nc(N2CC3(COC3)C2)ccc1Nc1ncc(Cl)c(Nc2ccccc2P(C)(C)=O)n1 [Embodiment 12] | 3630
15 | COc1nc(N2CC3(C2)CC(F)(F)C3)ccc1Nc1ncc(Cl)c(Nc2ccccc2P(C)(C)=O)n1 [Embodiment 13] | 1200

Same assay, conditions: male, C57BL/6, mouse, oral, 5 mg/kg, plasma, read-out: AUC0-last Plasma

Row | Structure (SMILES) | AUC(0-t) [µM·h]
16 | COc1nc(N2CC3(CC(OC)C3)C2)ccc1Nc1ncc(Cl)c(Nc2ccccc2P(C)(C)=O)n1 [Embodiment 11] | 1.45
17 | COc1nc(N2CC3(COC3)C2)ccc1Nc1ncc(Cl)c(Nc2ccccc2P(C)(C)=O)n1 [Embodiment 12] | 3.46
18 | COc1nc(N2CC3(C2)CC(F)(F)C3)ccc1Nc1ncc(Cl)c(Nc2ccccc2P(C)(C)=O)n1 [Embodiment 13] | 2.25

Same assay, conditions: male, C57BL/6, mouse, oral, 5 mg/kg, plasma, read-out: T1/2 Plasma (converted)

Row | Structure (SMILES) | half-life [min]
19 | COc1nc(N2CC3(CC(OC)C3)C2)ccc1Nc1ncc(Cl)c(Nc2ccccc2P(C)(C)=O)n1 [Embodiment 11] | 28.2
20 | COc1nc(N2CC3(COC3)C2)ccc1Nc1ncc(Cl)c(Nc2ccccc2P(C)(C)=O)n1 [Embodiment 12] | 36
21 | COc1nc(N2CC3(C2)CC(F)(F)C3)ccc1Nc1ncc(Cl)c(Nc2ccccc2P(C)(C)=O)n1 [Embodiment 13] | 58.8

Same assay, conditions: male, C57BL/6, mouse, oral, 5 mg/kg, plasma, read-out: Tmax Plasma

Row | Structure (SMILES) | Tmax [min]
22 | COc1nc(N2CC3(CC(OC)C3)C2)ccc1Nc1ncc(Cl)c(Nc2ccccc2P(C)(C)=O)n1 [Embodiment 11] | 30
23 | COc1nc(N2CC3(COC3)C2)ccc1Nc1ncc(Cl)c(Nc2ccccc2P(C)(C)=O)n1 [Embodiment 12] | 30
24 | COc1nc(N2CC3(C2)CC(F)(F)C3)ccc1Nc1ncc(Cl)c(Nc2ccccc2P(C)(C)=O)n1 [Embodiment 13] | 30

Same assay, conditions: oral, 5 mg/kg, brain tissues

Row | Structure (SMILES) | Cmax Brain Tissues [nM]
25 | COc1nc(N2CC3(CC(OC)C3)C2)ccc1Nc1ncc(Cl)c(Nc2ccccc2P(C)(C)=O)n1 [Embodiment 11] | 698
26 | COc1nc(N2CC3(COC3)C2)ccc1Nc1ncc(Cl)c(Nc2ccccc2P(C)(C)=O)n1 [Embodiment 12] | 576
27 | COc1nc(N2CC3(C2)CC(F)(F)C3)ccc1Nc1ncc(Cl)c(Nc2ccccc2P(C)(C)=O)n1 [Embodiment 13] | 726

Target: T1, LRRK2 full-length human recombinant protein (Homo sapiens, UniProt Q5S007)
T1 construct: express LRRK2 full-length human recombinant protein in Sf9 cells of insects; GST; made in house; host or cells: Sf9 insect cells (baculovirus)
Test: In vitro evaluation of LRRK2 kinase inhibitory activity (HTRF / TR-FRET, LRRKtide)
Assay type: biochemical
Conditions: 57 μM ATP, 0.4 uM Fluorescein-ERM (LRRKtide) peptide
Description: Experimental purpose: to detect transfer of energy signals (ratio of fluorescence signals: […]) after the phosphate group of phosphorylated Fluorescein-ERM (LRRKtide) peptide binds with LanthaScreen® Tb-pERM (pLRRKtide) antibody using homogeneous time-resolved fluorescence. Calculate IC50 for LRRK2 inhibition of the compound to be assayed.
1. Reaction solution: 10 mM 4-(2-hydroxyethyl) piperazine-1-ethanesulfonic acid (pH 7.5); 2 mM magnesium chloride; 0.5 mM glycol-bis-(2-aminoethylether)-N; 0.002% primary alcohol ethoxylate, 1 mM dithiothreitol and 1% DMSO;
2. Assay solution: TR-FRET Dilution Buffer;
3. LRRK2 human recombinant protein: use GST tag and baculovirus to express LRRK2 full-length human recombinant protein in Sf9 cells of insects;
4. Substrate: 0.4 uM Fluorescein-ERM (LRRKtide) peptide; 57 uM ATR
Resonance energy transfer of Fluorescein-ERM (LRRKtide) peptide and LanthaScreen® Tb-pERM (pLRRKtide) antibody between […].
1. Add DMSO solution of the compound to be assayed through the Echo550 non-contact nano-liter acoustic droplet ejection system;
2. Prepare mixed solution of enzyme and polypeptide with freshly prepared reaction solution. Add the mixed solution to the reaction cavity and warm it up at room temperature for 20 minutes in advance;
3. Add 57 μM ATP to initiate reaction, which lasts for 90 minutes at room temperature;
4. Add fluorescein-ERM (LRRKtide) peptide, LanthaScreen® Tb-pERM (pLRRKtide) antibody and 10 mM ethylene diamine tetraacetic acid to the assay system. The reaction lasts for 60 minutes at room temperature. Detect yellow light signals with Em/Ex 520/485.
5. Measure enzyme activity inhibition relative to DMSO blank control group according to the signal ratio, and calculate IC50 by fitting curves with the software XLfit5.

T1 sequence (Q5S007 whole entry): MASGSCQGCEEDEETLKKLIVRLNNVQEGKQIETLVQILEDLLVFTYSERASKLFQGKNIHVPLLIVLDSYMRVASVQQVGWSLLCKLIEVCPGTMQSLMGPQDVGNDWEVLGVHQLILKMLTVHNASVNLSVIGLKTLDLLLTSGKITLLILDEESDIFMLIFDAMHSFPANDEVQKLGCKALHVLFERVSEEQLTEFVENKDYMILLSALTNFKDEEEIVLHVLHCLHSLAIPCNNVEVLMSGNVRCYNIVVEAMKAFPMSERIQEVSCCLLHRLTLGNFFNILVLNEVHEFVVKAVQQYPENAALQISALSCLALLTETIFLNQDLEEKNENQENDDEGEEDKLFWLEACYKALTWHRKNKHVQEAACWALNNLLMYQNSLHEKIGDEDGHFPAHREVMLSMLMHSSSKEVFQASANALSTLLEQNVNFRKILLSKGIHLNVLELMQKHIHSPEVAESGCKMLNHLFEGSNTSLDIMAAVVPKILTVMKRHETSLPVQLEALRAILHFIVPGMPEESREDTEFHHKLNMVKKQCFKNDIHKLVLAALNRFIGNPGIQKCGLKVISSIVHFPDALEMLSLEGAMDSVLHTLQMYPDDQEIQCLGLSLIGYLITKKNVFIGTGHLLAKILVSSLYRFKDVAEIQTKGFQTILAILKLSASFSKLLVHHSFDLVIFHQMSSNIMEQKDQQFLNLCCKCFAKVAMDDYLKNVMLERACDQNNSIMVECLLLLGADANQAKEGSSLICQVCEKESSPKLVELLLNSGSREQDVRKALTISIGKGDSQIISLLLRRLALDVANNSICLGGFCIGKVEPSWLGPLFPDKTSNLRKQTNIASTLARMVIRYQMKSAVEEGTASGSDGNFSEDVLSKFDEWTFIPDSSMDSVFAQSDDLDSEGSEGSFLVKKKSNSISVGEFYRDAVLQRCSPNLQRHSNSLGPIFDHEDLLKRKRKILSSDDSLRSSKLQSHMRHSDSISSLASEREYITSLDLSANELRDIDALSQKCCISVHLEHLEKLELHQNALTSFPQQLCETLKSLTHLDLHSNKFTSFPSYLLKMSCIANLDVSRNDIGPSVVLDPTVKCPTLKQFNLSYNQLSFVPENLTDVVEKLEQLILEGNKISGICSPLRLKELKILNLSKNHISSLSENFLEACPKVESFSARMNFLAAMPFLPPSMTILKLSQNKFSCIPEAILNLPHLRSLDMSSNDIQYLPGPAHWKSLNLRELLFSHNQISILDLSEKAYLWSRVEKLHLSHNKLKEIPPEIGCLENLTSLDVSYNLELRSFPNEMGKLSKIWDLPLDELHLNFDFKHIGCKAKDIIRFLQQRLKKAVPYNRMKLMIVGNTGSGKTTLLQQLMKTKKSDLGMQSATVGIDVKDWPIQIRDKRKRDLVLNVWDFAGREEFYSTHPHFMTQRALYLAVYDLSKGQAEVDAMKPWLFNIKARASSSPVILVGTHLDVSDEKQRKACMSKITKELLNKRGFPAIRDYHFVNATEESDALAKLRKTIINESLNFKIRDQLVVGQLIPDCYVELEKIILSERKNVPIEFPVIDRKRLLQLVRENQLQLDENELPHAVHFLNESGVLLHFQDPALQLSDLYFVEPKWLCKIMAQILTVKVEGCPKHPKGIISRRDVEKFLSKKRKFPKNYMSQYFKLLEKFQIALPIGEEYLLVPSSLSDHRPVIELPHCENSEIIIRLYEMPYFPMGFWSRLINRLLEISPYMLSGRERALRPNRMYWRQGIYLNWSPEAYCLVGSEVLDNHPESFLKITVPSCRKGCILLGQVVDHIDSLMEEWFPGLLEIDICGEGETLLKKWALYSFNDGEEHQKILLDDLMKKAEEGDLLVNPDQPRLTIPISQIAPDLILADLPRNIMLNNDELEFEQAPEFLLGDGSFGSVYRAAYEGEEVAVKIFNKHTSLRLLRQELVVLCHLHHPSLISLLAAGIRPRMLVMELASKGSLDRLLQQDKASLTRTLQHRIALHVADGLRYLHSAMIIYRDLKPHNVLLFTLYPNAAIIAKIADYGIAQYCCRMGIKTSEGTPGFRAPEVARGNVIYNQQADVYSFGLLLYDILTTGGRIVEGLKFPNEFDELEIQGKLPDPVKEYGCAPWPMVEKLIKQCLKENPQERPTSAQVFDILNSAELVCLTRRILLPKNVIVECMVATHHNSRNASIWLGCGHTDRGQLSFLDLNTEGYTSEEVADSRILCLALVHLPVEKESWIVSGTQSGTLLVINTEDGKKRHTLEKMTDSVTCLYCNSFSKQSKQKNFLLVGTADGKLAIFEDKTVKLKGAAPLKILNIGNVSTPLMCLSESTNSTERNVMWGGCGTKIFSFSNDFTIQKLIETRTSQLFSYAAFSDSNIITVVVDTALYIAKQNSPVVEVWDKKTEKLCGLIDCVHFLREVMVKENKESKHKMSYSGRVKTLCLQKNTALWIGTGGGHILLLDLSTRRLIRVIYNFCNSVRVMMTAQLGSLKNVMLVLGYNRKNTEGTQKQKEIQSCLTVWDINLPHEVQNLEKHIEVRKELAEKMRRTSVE

Row | Structure (SMILES) | IC50 [nM]
28 | COc1nc(N2CC3(CC(OC)C3)C2)ccc1Nc1ncc(Cl)c(Nc2ccccc2P(C)(C)=O)n1 [Embodiment 11] | 5.3
29 | COc1nc(N2CC3(COC3)C2)ccc1Nc1ncc(Cl)c(Nc2ccccc2P(C)(C)=O)n1 [Embodiment 12] | 1.6
30 | COc1nc(N2CC3(C2)CC(F)(F)C3)ccc1Nc1ncc(Cl)c(Nc2ccccc2P(C)(C)=O)n1 [Embodiment 13] | 9.1

Target: T2, LRRK2 (pSer935) (Homo sapiens, UniProt Q5S007)
T2 construct: expressed in transfected cells; host or cells: 293T cells
Test: In vitro evaluation of inhibitory activity for LRRK2 cell (pSer935), 293T cells transfected with pcmv-flag-lrrk2, MSD
Assay type: cell-based
Conditions: not given
Description: Take 293T cells out of liquid nitrogen and put them in water at 37° C. After ice has fully thawed, transfer the cells to 5 mL warm culture medium. Discard the supernatant through centrifugation, and culture the suspended cells in the culture medium as new cells.
Culture the 293T cells in the culture medium for two to three days.
Plant 1.4×10^6/293T cells on a culture plate. After two days of culturing, cells will multiply to 5×10^6, so planting cells on N+1 plates is enough for performing experiments on N 96-well plates.
1) Add 5 μl (0.5 μg/μl) pcmv-flag-Irrk2 to 145 μl DMEM culture medium, and mix them evenly with a straw;
6) Incubate the culture plate inside a humidified incubator with 5% carbon dioxide for 20 to 24 hours at 37° C.
3. (Day 3) Plant the 293T Cells on the 96-Well Plate;
3) Transfer 50 μl inhibitor containing culture medium to the cell culture plate;
4) Incubate the culture plate inside a humidified incubator with 5% carbon dioxide for 20 to 24 hours at 37° C.;
5) Extract 300 μl inhibitor containing culture medium with a dropper. Take 200 μl inhibitor containing culture medium and add 100 μl decomposer into the culture medium. After the plate has been sealed, it shall be shaken for 30 minutes at 4° C.
1) Add 2 μg/25 μl labeled antibody to the MSD plate to incubate for 2 hours; (50 μl 3.9 μg/μl Flag antibody+2.5 ml fetal bovine serum per plate). Maintain centrifugation for 10 s (1,000 rpm);
5) Transfer 12.5 μl lysis buffer and 12.5 μl cell lysis buffer to the MSD plate to incubate for 1 hour at room temperature;
7) Dilute ps935 antibody at 1:200, and add 25 μl antibody to incubate for 1 hour;
9) Dilute goat anti-rabbit antibody at 1:500, and add 25 μl antibody to the incubation plate to incubate for 1 hour;
13) After incubation for about 3 minutes, read data over 15 minutes.

T2 sequence (Q5S007 whole entry): as above

Row | Structure (SMILES) | IC50 [nM]
31 | COc1nc(N2CC3(CC(OC)C3)C2)ccc1Nc1ncc(Cl)c(Nc2ccccc2P(C)(C)=O)n1 [Embodiment 11] | 4.5
32 | COc1nc(N2CC3(COC3)C2)ccc1Nc1ncc(Cl)c(Nc2ccccc2P(C)(C)=O)n1 [Embodiment 12] | 3.7
